# Literature values as cited in patent US7618965B2, “(Arylamidoanilino)nitroethylene compounds” (OSI Pharmaceuticals, Inc., priority 2004, dated 2009).
# Counter-ions that a name gives are not always drawn.
# What was measured:
# [1] = test system: MO7e human leukemia cells
# [2] = test system: MO7e human leukemia cells; remark: listed apart in the source
smiles,measurement,setting,value
"Cc1ccc(NC(=O)c2ccc(CN3CCN(C)CC3)cc2)cc1Nc1nccc(-c2cccnc2)n1 [Gleevec, imatinib mesylate]",Kit ligand-stimulated growth of MO7e cells,[1],inhibited
same,GM-CSF stimulated growth of MO7e cells,[2],not affected
